Consider 3 compounds from US10966426B2, “Herbicidal compositions comprising phenylpyrimidines” (BASF SE, priority 2016, dated 2021).

Holding throughout (assay type): in vivo
In one assay the test system is Brachiaria decumbens. Put plainly: greenhouse pre-emergence treatment, BRADC. The settings on record: Urochloa decumbens, 480 h, 20 DAT. The procedure, abridged:
(§1)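 Damage rated on 0 to 100 scale (0 = normal growth, 100 = no emergence or total above-ground kill) after 2-4 weeks at species-dependent 10-25° C or 20-35° C. Seeds sown per species in loamy sand, ~3.0% humus, treated right after sowing with aqueous spray of single actives or 10% emulsion-concentrate mixtures, then hooded; additive expectation by Colby.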

The subject of a further assay is Ambrosia elatior. Put plainly: greenhouse pre-emergence treatment, AMBEL. In outline: as §1
A further assay relates to Avena fatua. Put plainly: greenhouse pre-emergence treatment, AVEFA. The settings on record: 20 DAT. The text has this:
(§2) The culture containers used were plastic pots containing loamy sand with approximately 3.0% of humus as substrate. The seeds of the test plants were sown separately for each species.
(§3) For the pre-emergence treatment, the active compounds, suspended or emulsified in water, were applied directly after sowing by means of finely distributing nozzles. The containers were irrigated gently to promote germination and growth and subsequently covered with transparent plastic hoods until the plants had rooted. This cover caused uniform germination of the test plants unless this was adversely affected by the active compounds.
(§4) Depending on the species, the plants were kept at 10-25° C. and 20-35° C., respectively.
(§5) The test period extended over 2 to 4 weeks. During this time, the plants were tended and their response to the individual treatments was evaluated.
(§6) Evaluation was carried out using a scale from 0 to 100. 100 means no emergence of the plants, or complete destruction of at least the above-ground parts, and 0 means no damage or normal course of growth. A good herbicidal activity is given at values of at least 70, and very good herbicidal activity is given at values of at least 85.
(§7) The respective stated components A and B, and if appropriate, C were formulated as a 10% by weight strength emulsion concentrate and, with addition of the amount of solvent system, introduced into the spray liquor used for applying the active compound. In the examples, the solvent used was water.
(§8) In the examples below, using the method of S. R. Colby (1967) “Calculating synergistic and antagonistic responses of herbicide combinations”, Weeds 15, p. 22ff., the value E, which is expected if the activity of the individual active compounds is only additive, was calculated. E=X+Y−(X·Y/100) where X=effect in percent using herbicide A at an application rate a; • Y=effect in percent using herbicide B at application rate b; • E=expected effect (in %) of herbicide A+herbicide B at application rates a+b.

In a further assay the test system is Helianthus annuus. The experiment in a line: greenhouse pre-emergence treatment, HELAN. Particulars: HELAN, 20 DAT. In outline: as §1
Another assay has as its system Papaver rhoeas. The experiment in a line: greenhouse pre-emergence treatment, PAPRH. The settings on record: 20 DAT.
Description: as §2, §3, §4, §5, §6, §7, §8

For another assay, the system named is Lolium multiflorum. The experiment in a line: greenhouse pre-emergence treatment, LOLMU. Particulars: Lolium multiflorum, 480 h, 20 DAT.
Description: as §2, §3, §4, §5, §6, §7, §8

Another assay concerns Stellaria media. Put plainly: greenhouse pre-emergence treatment, STEME. The settings on record: 20 DAT.
Description: as §2, §3, §4, §5, §6, §7, §8

For the next assay, the system named is Galium aparine. The experiment in a line: greenhouse pre-emergence treatment, GALAP.
Description: as §2, §3, §4, §5, §6, §7, §8

A further assay deals with Alopecurus myosuroides. Put plainly: greenhouse pre-emergence treatment, ALOMY. Particulars: 20 DAT.
Description: as §2, §3, §4, §5, §6, §7, §8

Another assay deals with Bromus sterilis. The experiment in a line: greenhouse pre-emergence treatment, BROST. The settings on record: BROST, 20 DAT; for pest or weed control at 62.5 g/ha: Bromus sterilis, 480 h.
Description: as §2, §3, §4, §5, §6, §7, §8

The next assay deals with Setaria viridis. Put plainly: greenhouse pre-emergence treatment, SETVI. The settings on record: 20 DAT; for % activity: SETVI.
Description: as §2, §3, §4, §5, §6, §7, §8

In another assay the test system is Polygonum convolvulus. Put plainly: greenhouse pre-emergence treatment, POLCO. The settings on record: Fallopia convolvulus, 480 h, 20 DAT, saflufenacil solo 12.5 gai/ha.
Description: as §2, §3, §4, §5, §6, §7, §8

The subject of a further assay is Digitaria sanguinalis. The experiment in a line: greenhouse pre-emergence treatment, DIGSA. Particulars: Digitaria sanguinalis, 480 h, 20 DAT.
Description: as §2, §3, §4, §5, §6, §7, §8

Another assay relates to Poa annua. The experiment in a line: greenhouse pre-emergence treatment, POAAN. Particulars: 20 DAT.
Description: as §2, §3, §4, §5, §6, §7, §8

A further assay has as its system Apera spica-venti. The experiment in a line: greenhouse pre-emergence treatment, APESV. The settings on record: 20 DAT.
Description: as §2, §3, §4, §5, §6, §7, §8

[1] abbreviates: solo dimethenamid (EC 720 g/l) 62.5 gai/ha.
Setting [2] is: dimethenamid solo (EC 720 g/l), 62.5 gai/ha.
Where [3] appears, read: dimethenamid solo (EC 720 g/l), 125 gai/ha.
[4] abbreviates: solo saflufenacil (SC 342 g/l) 6.25 gai/ha.
Where [5] appears, read: solo saflufenacil (SC 342 g/l) 25 gai/ha.
The mark [6] stands for this setting: solo quinmerac (WP 50%) 62.5 gai/ha.
Setting [7] is: solo quinmerac (WP 50%) 250 gai/ha.

As to `COCC(C)N(C(=O)CCl)c1c(C)csc1C` (stereo not shown) [dimethenamid], the pest or weed control at 31.25 g/ha with Brachiaria decumbens (dimethenamid solo (EC 720 g/l), 31.25 gai/ha, BRADC) worked out at 60%; with Ambrosia elatior (Ambrosia artemisiifolia, 480 h, AMBEL, 20 DAT, solo dimethenamid (EC 720 g/l) 31.25 gai/ha) it was 0%; with Galium aparine (Galium aparine, 480 h, dimethenamid solo (EC 720 g/l), 31.25 gai/ha, 20 DAT, GALAP), 50%. For the same compound, the “% activity” value is reported as 20% in the assay on Ambrosia elatior (AMBEL, 20 DAT, solo dimethenamid (EC 720 g/l) 125 gai/ha); 30% with Ambrosia elatior (AMBEL, 20 DAT, solo dimethenamid (EC 720 g/l) 250 gai/ha); 10% with Avena fatua (AVEFA, solo dimethenamid (EC 720 g/l) 62.5 gai/ha); 35% in the assay on Helianthus annuus (solo dimethenamid (EC 720 g/l) 250 gai/ha); 90% in the assay with Papaver rhoeas (setting [1]); 90% in the assay on Papaver rhoeas (setting [2]). The “% activity” value in the assay with Papaver rhoeas (setting [3]) amounted to 90%; in the assay with Stellaria media (dimethenamid solo (EC 720 g/l), 31.25 gai/ha), 80%; in the assay on Stellaria media (setting [2]) it was 90%; with Galium aparine (GALAP, 20 DAT, solo dimethenamid (EC 720 g/l) 31.25 gai/ha), 50%; in the assay with Galium aparine (GALAP, 20 DAT, solo dimethenamid (EC 720 g/l) 62.5 gai/ha), 60%; in the assay on Galium aparine (GALAP, 20 DAT, solo dimethenamid (EC 720 g/l) 125 gai/ha), 50%. The “% activity” value in the assay with Alopecurus myosuroides (setting [3]) came out at 60%; in the assay with Alopecurus myosuroides (dimethenamid solo (EC 720 g/l), 250 gai/ha), 65%; in the assay on Bromus sterilis (setting [1]), 80%. For the same compound, the pest or weed control at 62.5 g/ha in the assay with Ambrosia elatior (Ambrosia artemisiifolia, 480 h, AMBEL, 20 DAT, solo dimethenamid (EC 720 g/l) 62.5 gai/ha) was found to be 0%; with Avena fatua (Avena fatua, 480 h, dimethenamid solo (EC 720 g/l), 62.5 gai/ha, AVEFA), 10%; in the assay on Lolium multiflorum (dimethenamid solo (EC 720 g/l), 62.5 gai/ha, LOLMU), 80%; with Galium aparine (Galium aparine, 480 h, dimethenamid solo (EC 720 g/l), 62.5 gai/ha, 20 DAT, GALAP) it was 60%; in the assay on Bromus sterilis (setting [2]), 80%. Besides, the pest or weed control at 125 g/ha in the assay on Ambrosia elatior (Ambrosia artemisiifolia, 480 h, dimethenamid solo (EC 720 g/l), 125 gai/ha, 20 DAT, AMBEL) amounted to 20%; in the assay with Avena fatua (Avena fatua, 480 h, dimethenamid solo (EC 720 g/l), 125 gai/ha, AVEFA), 50%; in the assay on Galium aparine (Galium aparine, 480 h, dimethenamid solo (EC 720 g/l), 125 gai/ha, 20 DAT, GALAP), 50%. Further, the pest or weed control at 250 g/ha in the assay with Ambrosia elatior (Ambrosia artemisiifolia, 480 h, dimethenamid solo (EC 720 g/l), 250 gai/ha, 20 DAT, AMBEL) was 30%; in the assay with Avena fatua (Avena fatua, 480 h, dimethenamid solo (EC 720 g/l), 250 gai/ha, AVEFA) it was 65%. The plant injury at 250 g/ha in the assay with Helianthus annuus (Helianthus annuus, 480 h, dimethenamid solo (EC 720 g/l), 250 gai/ha) came out at 35%.
With `CC(C)N(C)S(=O)(=O)NC(=O)c1cc(-n2c(=O)cc(C(F)(F)F)n(C)c2=O)c(F)cc1Cl` [saflufenacil], the % herbicidal activity (weed control, 0-100 scale) at 6.25 g/ha in the assay with Brachiaria decumbens (saflufenacil solo 6.25 gai/ha) worked out at 10%. Further, the % herbicidal activity (weed control, 0-100 scale) at 12.5 g/ha in the assay on Brachiaria decumbens (saflufenacil solo 12.5 gai/ha) was 20%; with Galium aparine (Galium aparine, 480 h, 20 DAT, saflufenacil solo 12.5 gai/ha), 80%. Further, the percent weed control (herbicidal activity, 0-100 scale) at 6.25 g/ha with Ambrosia elatior (Ambrosia artemisiifolia, 480 h, 20 DAT, saflufenacil solo 6.25 gai/ha) was determined as 45%. Also, the pest or weed control at 3.75 g/ha in the assay with Ambrosia elatior (Ambrosia artemisiifolia, 480 h, Table X11, 20 DAT, AMBEL, solo saflufenacil (title: flumioxazin, WG 51%) 3.75 gai/ha) worked out at 0%. The inhibition at 6.25 g/ha in the assay on Avena fatua (Avena fatua, 480 h, saflufenacil solo 6.25 gai/ha) was 0%; in the assay on Setaria viridis (Setaria viridis, 480 h, saflufenacil solo 6.25 gai/ha), 25%; in the assay on Lolium multiflorum (saflufenacil solo 6.25 gai/ha), 10%; in the assay with Digitaria sanguinalis (saflufenacil solo 6.25 gai/ha), 10%. For the same compound, the “% activity” value is recorded as 25% with Setaria viridis (setting [4]); 65% with Setaria viridis (setting [5]); 0% in the assay on Alopecurus myosuroides (setting [4]); 0% in the assay on Alopecurus myosuroides (solo saflufenacil (SC 342 g/l) 12.5 gai/ha); 0% in the assay on Alopecurus myosuroides (setting [5]). In addition, the inhibition at 12.5 g/ha with Setaria viridis (Setaria viridis, 480 h, saflufenacil solo 12.5 gai/ha) is 40%; in the assay with Polygonum convolvulus it was 90%. Moreover, the inhibition at 25 g/ha with Setaria viridis (Setaria viridis, 480 h, saflufenacil solo 25 gai/ha) is 65%; with Digitaria sanguinalis (saflufenacil solo 25 gai/ha), 35%. Moreover, in the assay with Setaria viridis (Setaria viridis, 480 h, saflufenacil solo 50 gai/ha), the inhibition at 50 g/ha turned out to be 90%. For the same compound, the pest or weed control at 30 g/ha with Galium aparine (Galium aparine, 480 h, Table X11, 20 DAT, GALAP, solo saflufenacil (title: flumioxazin, WG 51%) 30 gai/ha, read-out: % activity) amounted to 65%.
In the case of `Cc1cnc2c(C(=O)O)c(Cl)ccc2c1` [quinmerac], the “% activity” value in the assay on Poa annua (setting [6]) was determined as 0%; in the assay on Poa annua (solo quinmerac (WP 50%) 125 gai/ha) it was 0%; with Poa annua (setting [7]) it was 0%; in the assay with Apera spica-venti (setting [6]), 0%; in the assay with Apera spica-venti (setting [7]), 25%; in the assay on Papaver rhoeas (setting [7]), 95%. For the same compound, the “% activity” value in the assay on Stellaria media (setting [7]) is 0%. Further, the pest or weed control at 62.5 g/ha was 0% in the assay with Brachiaria decumbens (quinmerac solo (WP 50%), 62.5 gai/ha, BRADC); 0% with Bromus sterilis (setting [6]); 0% in the assay with Digitaria sanguinalis (DIGSA, solo quinmerac (WP 50%) 62.5 gai/ha). Moreover, the pest or weed control at 125 g/ha came out at 0% in the assay on Brachiaria decumbens (quinmerac solo (WP 50%), 125 gai/ha, BRADC); 0% with Avena fatua (Avena fatua, 480 h, AVEFA, solo quinmerac (WP 50%) 125 gai/ha); 95% with Galium aparine (Galium aparine, 480 h, GALAP, 20 DAT, solo quinmerac (WP 50%) 125 gai/ha); 0% in the assay on Digitaria sanguinalis (DIGSA, solo quinmerac (WP 50%) 125 gai/ha). Further, the pest or weed control at 250 g/ha came out at 30% with Brachiaria decumbens (quinmerac solo (WP 50%), 250 gai/ha, BRADC); 0% with Ambrosia elatior (Ambrosia artemisiifolia, 480 h, AMBEL, 20 DAT, solo quinmerac (WP 50%) 250 gai/ha); 0% in the assay on Lolium multiflorum (LOLMU, solo quinmerac (WP 50%) 250 gai/ha). For the same compound, the pest or weed control at 31.25 g/ha in the assay with Avena fatua (Avena fatua, 480 h, AVEFA, solo quinmerac (WP 50%) 31.25 gai/ha) was 0%; with Digitaria sanguinalis (DIGSA, solo quinmerac (WP 50%) 31.25 gai/ha) it was 0%. In the assay with Helianthus annuus (Helianthus annuus, 480 h, solo quinmerac (WP 50%) 125 gai/ha), the plant injury at 125 g/ha came out at 0%. Moreover, in the assay with Helianthus annuus (Helianthus annuus, 480 h, quinmerac solo (WP 50%), 62.5 gai/ha), the plant injury at 62.5 g/ha was determined as 0%.

One may read the plant injury as the degree to which the test organism was suppressed or injured, in per cent. One may read the inhibition as the percentage by which the read-out fell short of the control.
